According to patent US20210309978A1, “POLYNUCLEOTIDE SEQUENCE ENCODING A LOCAL SOURCED NOVEL ESTERASE” (ISTANBUL TEKNIK UNIVERSITESI, priority 2018, published 2021):
Like-named read-outs stand apart in the source and are kept apart here.

Columns and labels:
esterase enzyme [1] = test: Effect of metals on enzyme activity; format: biochemical, microflora of Ac1göl (Aci Lake); conditions: for Metal tolerance, This study: the enzyme of the invention in presence of metal ion
[2] = system: new true lipase isolated through metagenomic approach; conditions: literature enzyme in presence of metal ion; cited from earlier work
[3] = system: heavy metal-resistant, thermophilic esterase from a Red Sea Brine Pool; conditions: literature enzyme in presence of metal ion; cited from earlier work
[4] = system: thermophilic and halophilic esterase from Janibacter sp. R02; conditions: literature enzyme in presence of metal ion; cited from earlier work
[5] = system: Salt-Tolerant Esterase from the Deep-Sea Sediment of the South China Sea; conditions: literature enzyme in presence of metal ion; cited from earlier work
esterase enzyme [6] = test: Effect of solutions (solvents) on enzyme activity; format: biochemical, microflora of Ac1göl (Aci Lake); conditions: for Effect of solutions on activity, Activity (%): 10% solution added into the reaction
Experimental: (§1) 6. […] The final concentration of the enzyme and substrate have been 1 μM and 1 mM respectively and absorbance measurements have been taken at 410 nm. The activity has been calculated by means of the below formula and one unit of activity has been defined as the enzyme amount which produces 1 μmol product in 1 minute.
(§2) Activity (U/L)=[(ΔAbs/t)/(ε*d)]*106*Vt/Vs • ΔAbs=Absorbance change; t=time (minute); ε=extinction coefficient (M−1 cm−1); d=light path (cm); Vt=total reaction volume; Vs=enzyme volume used in reaction.
(§3) Additionally, the effect of different solutions (hexane, chloroform, acetone, dimethyl formamide (DMF), dimethyl sulphoxide (DMSO), 2-propanol, butanol, 1-propanol, ethanol, methanol and glycerol) on the activity and stability of the enzyme have been measured. In the activity tests, 10% solution has been added into the reaction and in the stability tests the enzyme has been incubated for 24 hours in a buffer solution containing 15% and 30% solution.

esterase enzyme [7] = test: Effect of solutions (solvents) on enzyme stability (24 hours incubation); format: biochemical, microflora of Ac1göl (Aci Lake); conditions: for Effect of solutions on stability, Activity (%) 15% Solution: enzyme incubated 24 hours in buffer containing 15% solution; for Effect of solutions on stability, Activity (%) 30% Solution: enzyme incubated 24 hours in buffer containing 30% solution
Experimental: as §1, §2, §3

esterase enzyme [8] = test: Effects of inhibitors and detergents on enzyme activity; format: biochemical, microflora of Ac1göl (Aci Lake)

O=S(=O)([O-])[O-].[Cu+2] [CuSO4]
Activity (%) (1 mM metal) (esterase enzyme [1]; 1 mM metal): 117.5 ± 5%
Activity (%) (5 mM metal) (esterase enzyme [1]; 5 mM metal): 1.4 ± 1.1%

O=S(=O)([O-])[O-].[Zn+2] [ZnSO4]
Activity (%) (1 mM metal) (esterase enzyme [1]; 1 mM metal): 6.1 ± 3.1%
Activity (%) (5 mM metal) (esterase enzyme [1]; 5 mM metal): 1.3 ± 1.2%

[Ag+] [Ag^+]
Metal tolerance, This study (esterase enzyme [1]): 32
Metal tolerance, Glogauer et al, 2011 [2]: 8

[Ca+2] [Ca^2+]
Metal tolerance, This study (esterase enzyme [1]): 130
Metal tolerance, Glogauer et al, 2011 [2]: 73
Metal tolerance, Mohamed et al, 2013 [3]: 95
Metal tolerance, Castilla et al, 2017 [4]: 110
Metal tolerance, Zhang et al, 2017 [5]: 95

CCO [Ethanol, ethanol]
Effect of solutions on activity, Activity (%) (esterase enzyme [6]): 45.1 ± 0.3%
Effect of solutions on stability, Activity (%) 15% Solution (esterase enzyme [7]): 105.9 ± 4.7%
Effect of solutions on stability, Activity (%) 30% Solution (esterase enzyme [7]): 98.2 ± 0.5%

[Fe+2] [Fe^2+]
Metal tolerance, This study (esterase enzyme [1]): 116
Metal tolerance, Glogauer et al, 2011 [2]: 33
Metal tolerance, Castilla et al, 2017 [4]: 55
Metal tolerance, Zhang et al, 2017 [5]: 85

1-propanol
Effect of solutions on activity, Activity (%) (esterase enzyme [6]): 2.6 ± 2.4%
Effect of solutions on stability, Activity (%) 15% Solution (esterase enzyme [7]): 85.7 ± 2.6%
Effect of solutions on stability, Activity (%) 30% Solution (esterase enzyme [7]): 23.3 ± 5.4%

Tween-80
Activity (%) (1 mM inh.) (esterase enzyme [8]; 1 mM inh.): 107.2 ± 7.9%
Activity (%) (5 mM inh.) (esterase enzyme [8]; 5 mM inh.): 80.7 ± 2.2%

NP-40
Activity (%) (1 mM inh.) (esterase enzyme [8]; 1 mM inh.): 101.9 ± 6.8%
Activity (%) (5 mM inh.) (esterase enzyme [8]; 5 mM inh.): 89.1 ± 1.5%

[Al+3] [Al^3+]
Metal tolerance, This study (esterase enzyme [1]): 91
Metal tolerance, Glogauer et al, 2011 [2]: 45

ClC(Cl)Cl [Chloroform, chloroform]
Effect of solutions on activity, Activity (%) (esterase enzyme [6]): 5.1 ± 0.8%
Effect of solutions on stability, Activity (%) 15% Solution (esterase enzyme [7]): 97.9 ± 1.4%
Effect of solutions on stability, Activity (%) 30% Solution (esterase enzyme [7]): 100.2 ± 5.6%

[Cl-].[Cl-].[Mg+2] [MgCl2]
Activity (%) (1 mM metal) (esterase enzyme [1]; 1 mM metal): 130.2 ± 0.6%
Activity (%) (5 mM metal) (esterase enzyme [1]; 5 mM metal): 104.6 ± 3%

[Cu+2] [Cu^2+]
Metal tolerance, This study (esterase enzyme [1]): 118
Metal tolerance, Mohamed et al, 2013 [3]: 95
Metal tolerance, Castilla et al, 2017 [4]: 60
Metal tolerance, Zhang et al, 2017 [5]: 82

[Ca+2].[Cl-].[Cl-] [CaCl2]
Activity (%) (1 mM metal) (esterase enzyme [1]; 1 mM metal): 130.2 ± 1.7%
Activity (%) (5 mM metal) (esterase enzyme [1]; 5 mM metal): 105.1 ± 1.4%

O=C(O)CN(CCOCCOCCN(CC(=O)O)CC(=O)O)CC(=O)O [EGTA, ethylene glycol tetraacetic acid]
Activity (%) (1 mM inh.) (esterase enzyme [8]): 100.2 ± 2.1%
Activity (%) (5 mM inh.) (esterase enzyme [8]): 87.6 ± 3.9%

[Cl-].[Cl-].[Co+2] [CoCl2]
Activity (%) (1 mM metal) (esterase enzyme [1]): 112.7 ± 3.4%
Activity (%) (5 mM metal) (esterase enzyme [1]): 3.6 ± 1.0%

OCC(O)CO [Glycerol, glycerol]
Effect of solutions on activity, Activity (%) (esterase enzyme [6]): 104.2 ± 6.2%
increase of activity (esterase enzyme [6]; in the presence of 10% solvents): 4%
Effect of solutions on stability, Activity (%) 15% Solution (esterase enzyme [7]): 113.3 ± 1.8%
Effect of solutions on stability, Activity (%) 30% Solution (esterase enzyme [7]): 106.9 ± 3.1%

Triton X-100
Activity (%) (1 mM inh.) (esterase enzyme [8]; 1 mM inh.): 105.3 ± 2.4%
Activity (%) (5 mM inh.) (esterase enzyme [8]; 5 mM inh.): 87.7 ± 3.2%

O=S(=O)([O-])[O-].O=S(=O)([O-])[O-].O=S(=O)([O-])[O-].[Al+3].[Al+3] [Al2SO4]
Activity (%) (1 mM metal) (esterase enzyme [1]; 1 mM metal): 91.2 ± 9.8%
Activity (%) (5 mM metal) (esterase enzyme [1]; 5 mM metal): 0.0%

[Mg+2] [mg^2+]
Metal tolerance, This study (esterase enzyme [1]): 130
Metal tolerance, Glogauer et al, 2011 [2]: 65
Metal tolerance, Mohamed et al, 2013 [3]: 91
Metal tolerance, Castilla et al, 2017 [4]: 160
Metal tolerance, Zhang et al, 2017 [5]: 97

O=S(=O)([O-])[O-].[Mn+2] [MnSO4]
Activity (%) (1 mM metal) (esterase enzyme [1]; 1 mM metal): 130.4 ± 0.4%
Activity (%) (5 mM metal) (esterase enzyme [1]; 5 mM metal): 110.3 ± 3.5%

O[C@H](CS)[C@H](O)CS (racemic) [DTT, dithiothreitol]
Activity (%) (1 mM inh.) (esterase enzyme [8]; 1 mM inh.): 36.7 ± 2.4%
Activity (%) (5 mM inh.) (esterase enzyme [8]; 5 mM inh.): 25.1 ± 0.8%

CCCCCC [Hexane, hexane]
Effect of solutions on activity, Activity (%) (esterase enzyme [6]): 22.6 ± 4.9%
Effect of solutions on stability, Activity (%) 15% Solution (esterase enzyme [7]): 113.6 ± 8.5%
Effect of solutions on stability, Activity (%) 30% Solution (esterase enzyme [7]): 100.2 ± 4.9%

[Zn+2] [Zn^2+]
Metal tolerance, This study (esterase enzyme [1]): 6
Metal tolerance, Glogauer et al, 2011 [2]: 45
Metal tolerance, Mohamed et al, 2013 [3]: 85
Metal tolerance, Castilla et al, 2017 [4]: 160
Metal tolerance, Zhang et al, 2017 [5]: 25

[Cl-].[K+] [KCl]
Activity (%) (1 mM metal) (esterase enzyme [1]; 1 mM metal): 127.9 ± 3.9%
Activity (%) (5 mM metal) (esterase enzyme [1]; 5 mM metal): 98.2 ± 3.4%

O=S(=O)([O-])[O-].[Fe+2] [FeSO4]
Activity (%) (1 mM metal) (esterase enzyme [1]; 1 mM metal): 115.7 ± 2.3%
Activity (%) (5 mM metal) (esterase enzyme [1]; 5 mM metal): 0.0%

CCCCCCCCCCCCCCCC[N+](C)(C)C.[Br-] [CTAB, cetrimonium bromide]
Activity (%) (1 mM inh.) (esterase enzyme [8]; 1 mM inh.): 91 ± 6.6%
Activity (%) (5 mM inh.) (esterase enzyme [8]; 5 mM inh.): 1.3 ± 0.3%

C[S+](C)[O-] [DMSO, dimethyl sulphoxide]
Effect of solutions on activity, Activity (%) (esterase enzyme [6]): 92%
Effect of solutions on stability, Activity (%) 15% Solution (esterase enzyme [7]): 106.1 ± 0.9%
Effect of solutions on stability, Activity (%) 30% Solution (esterase enzyme [7]): 102.2 ± 4.8%

CCCCCCCCCCCCOS(=O)(=O)[O-].[Na+] [SDS, sodium dodecyl sulphate]
Activity (%) (1 mM inh.) (esterase enzyme [8]; 1 mM inh.): 85.6 ± 2.9%
Activity (%) (5 mM inh.) (esterase enzyme [8]; 5 mM inh.): 5.0 ± 0.8%

O=S(=O)(F)Cc1ccccc1 [PMSF, phenylmethanesulfonyl fluoride]
Activity (%) (1 mM inh.) (esterase enzyme [8]; 1 mM inh.): 1.3 ± 0.1%
Activity (%) (5 mM inh.) (esterase enzyme [8]; 5 mM inh.): 0.2%

O=[N+]([O-])[O-].[Ag+] [AgNO3]
Activity (%) (1 mM metal) (esterase enzyme [1]; 1 mM metal): 31.6 ± 6.5%
Activity (%) (5 mM metal) (esterase enzyme [1]; 5 mM metal): 0.0%

CO [Methanol, methanol]
Effect of solutions on activity, Activity (%) (esterase enzyme [6]): 81.1 ± 1.1%
Effect of solutions on activity, Activity (%) (esterase enzyme [6]; listed as methanol): 81%
Effect of solutions on stability, Activity (%) 15% Solution (esterase enzyme [7]): 108.5 ± 0.2%
Effect of solutions on stability, Activity (%) 30% Solution (esterase enzyme [7]): 99.4 ± 6.6%

[Co+2] [Co^2+]
Metal tolerance, This study (esterase enzyme [1]): 113
Metal tolerance, Glogauer et al, 2011 [2]: 54
Metal tolerance, Mohamed et al, 2013 [3]: 104
Metal tolerance, Castilla et al, 2017 [4]: 50
Metal tolerance, Zhang et al, 2017 [5]: 85

[Ni+2] [Ni^2+]
Metal tolerance, This study (esterase enzyme [1]): 110
Metal tolerance, Glogauer et al, 2011 [2]: 66
Metal tolerance, Castilla et al, 2017 [4]: 75
Metal tolerance, Zhang et al, 2017 [5]: 68

CC(C)O [2-Propanol, 2-propanol]
Effect of solutions on activity, Activity (%) (esterase enzyme [6]): 21.4 ± 1.6%
Effect of solutions on stability, Activity (%) 15% Solution (esterase enzyme [7]): 104.3 ± 1.2%
Effect of solutions on stability, Activity (%) 30% Solution (esterase enzyme [7]): 62.3 ± 4.3%

[Mn+2] [Mn^2+]
Metal tolerance, This study (esterase enzyme [1]): 130
Metal tolerance, Glogauer et al, 2011 [2]: 47
Metal tolerance, Mohamed et al, 2013 [3]: 112
Metal tolerance, Castilla et al, 2017 [4]: 75
Metal tolerance, Zhang et al, 2017 [5]: 76

CN(C)C=O [DMF, dimethyl formamide]
Effect of solutions on activity, Activity (%) (esterase enzyme [6]): 33.2 ± 7.0%
Effect of solutions on stability, Activity (%) 15% Solution (esterase enzyme [7]): 121.3 ± 1.6%
Effect of solutions on stability, Activity (%) 30% Solution (esterase enzyme [7]): 105.3 ± 1.6%

CC(C)=O [Acetone, acetone]
Effect of solutions on activity, Activity (%) (esterase enzyme [6]): 36 ± 4.9%
Effect of solutions on stability, Activity (%) 15% Solution (esterase enzyme [7]): 113.7 ± 2.5%
Effect of solutions on stability, Activity (%) 30% Solution (esterase enzyme [7]): 85.2 ± 5.6%

[Cl][Ni][Cl] [NiCl2]
Activity (%) (1 mM metal) (esterase enzyme [1]; 1 mM metal): 110.4 ± 6.1%
Activity (%) (5 mM metal) (esterase enzyme [1]; 5 mM metal): 0.5%

butanol
Effect of solutions on activity, Activity (%) (esterase enzyme [6]): 3.3 ± 3.3%
Effect of solutions on stability, Activity (%) 15% Solution (esterase enzyme [7]): 97.1 ± 3.3%
Effect of solutions on stability, Activity (%) 30% Solution (esterase enzyme [7]): 104.9 ± 2.4%

[K+] [K^+]
Metal tolerance, This study (esterase enzyme [1]): 128
Metal tolerance, Glogauer et al, 2011 [2]: 122
Metal tolerance, Castilla et al, 2017 [4]: 90
Metal tolerance, Zhang et al, 2017 [5]: 108

O=C(O)CN(CCN(CC(=O)O)CC(=O)O)CC(=O)O [EDTA, ethylene diamine tetraacetic acid]
Activity (%) (1 mM inh.) (esterase enzyme [8]; 1 mM inh.): 89.6 ± 1.7%
Activity (%) (5 mM inh.) (esterase enzyme [8]; 5 mM inh.): 66.5 ± 1.2%
